Data reported in publication PMC5702617, “Novel peptide probes to assess the tensional state of fibronectin fibers in cancer” (Nature Communications, 2017).
Residues, ends and D or L forms follow the SMILES beside them. *: point of attachment. X2 = N=c1ccc2c(-c3ccc(C(=O)NCCCCCN4C(=O)CC(*)C4=O)cc3C(=O)O)c3ccc(N)c(S(=O)(=O)O)c3oc-2c1S(=O)(=O)O

Legend:
relaxed Fn fibers = relaxed Fn fibers (Homo sapiens, UniProt P02751); experiment: Single Fn fiber binding assay, relaxed fibers; details: relaxed fibers (7% strain), 30 fibers from three independent experiments, Student's t test
relaxed Fn fibers, sequence (P02751 32-2477): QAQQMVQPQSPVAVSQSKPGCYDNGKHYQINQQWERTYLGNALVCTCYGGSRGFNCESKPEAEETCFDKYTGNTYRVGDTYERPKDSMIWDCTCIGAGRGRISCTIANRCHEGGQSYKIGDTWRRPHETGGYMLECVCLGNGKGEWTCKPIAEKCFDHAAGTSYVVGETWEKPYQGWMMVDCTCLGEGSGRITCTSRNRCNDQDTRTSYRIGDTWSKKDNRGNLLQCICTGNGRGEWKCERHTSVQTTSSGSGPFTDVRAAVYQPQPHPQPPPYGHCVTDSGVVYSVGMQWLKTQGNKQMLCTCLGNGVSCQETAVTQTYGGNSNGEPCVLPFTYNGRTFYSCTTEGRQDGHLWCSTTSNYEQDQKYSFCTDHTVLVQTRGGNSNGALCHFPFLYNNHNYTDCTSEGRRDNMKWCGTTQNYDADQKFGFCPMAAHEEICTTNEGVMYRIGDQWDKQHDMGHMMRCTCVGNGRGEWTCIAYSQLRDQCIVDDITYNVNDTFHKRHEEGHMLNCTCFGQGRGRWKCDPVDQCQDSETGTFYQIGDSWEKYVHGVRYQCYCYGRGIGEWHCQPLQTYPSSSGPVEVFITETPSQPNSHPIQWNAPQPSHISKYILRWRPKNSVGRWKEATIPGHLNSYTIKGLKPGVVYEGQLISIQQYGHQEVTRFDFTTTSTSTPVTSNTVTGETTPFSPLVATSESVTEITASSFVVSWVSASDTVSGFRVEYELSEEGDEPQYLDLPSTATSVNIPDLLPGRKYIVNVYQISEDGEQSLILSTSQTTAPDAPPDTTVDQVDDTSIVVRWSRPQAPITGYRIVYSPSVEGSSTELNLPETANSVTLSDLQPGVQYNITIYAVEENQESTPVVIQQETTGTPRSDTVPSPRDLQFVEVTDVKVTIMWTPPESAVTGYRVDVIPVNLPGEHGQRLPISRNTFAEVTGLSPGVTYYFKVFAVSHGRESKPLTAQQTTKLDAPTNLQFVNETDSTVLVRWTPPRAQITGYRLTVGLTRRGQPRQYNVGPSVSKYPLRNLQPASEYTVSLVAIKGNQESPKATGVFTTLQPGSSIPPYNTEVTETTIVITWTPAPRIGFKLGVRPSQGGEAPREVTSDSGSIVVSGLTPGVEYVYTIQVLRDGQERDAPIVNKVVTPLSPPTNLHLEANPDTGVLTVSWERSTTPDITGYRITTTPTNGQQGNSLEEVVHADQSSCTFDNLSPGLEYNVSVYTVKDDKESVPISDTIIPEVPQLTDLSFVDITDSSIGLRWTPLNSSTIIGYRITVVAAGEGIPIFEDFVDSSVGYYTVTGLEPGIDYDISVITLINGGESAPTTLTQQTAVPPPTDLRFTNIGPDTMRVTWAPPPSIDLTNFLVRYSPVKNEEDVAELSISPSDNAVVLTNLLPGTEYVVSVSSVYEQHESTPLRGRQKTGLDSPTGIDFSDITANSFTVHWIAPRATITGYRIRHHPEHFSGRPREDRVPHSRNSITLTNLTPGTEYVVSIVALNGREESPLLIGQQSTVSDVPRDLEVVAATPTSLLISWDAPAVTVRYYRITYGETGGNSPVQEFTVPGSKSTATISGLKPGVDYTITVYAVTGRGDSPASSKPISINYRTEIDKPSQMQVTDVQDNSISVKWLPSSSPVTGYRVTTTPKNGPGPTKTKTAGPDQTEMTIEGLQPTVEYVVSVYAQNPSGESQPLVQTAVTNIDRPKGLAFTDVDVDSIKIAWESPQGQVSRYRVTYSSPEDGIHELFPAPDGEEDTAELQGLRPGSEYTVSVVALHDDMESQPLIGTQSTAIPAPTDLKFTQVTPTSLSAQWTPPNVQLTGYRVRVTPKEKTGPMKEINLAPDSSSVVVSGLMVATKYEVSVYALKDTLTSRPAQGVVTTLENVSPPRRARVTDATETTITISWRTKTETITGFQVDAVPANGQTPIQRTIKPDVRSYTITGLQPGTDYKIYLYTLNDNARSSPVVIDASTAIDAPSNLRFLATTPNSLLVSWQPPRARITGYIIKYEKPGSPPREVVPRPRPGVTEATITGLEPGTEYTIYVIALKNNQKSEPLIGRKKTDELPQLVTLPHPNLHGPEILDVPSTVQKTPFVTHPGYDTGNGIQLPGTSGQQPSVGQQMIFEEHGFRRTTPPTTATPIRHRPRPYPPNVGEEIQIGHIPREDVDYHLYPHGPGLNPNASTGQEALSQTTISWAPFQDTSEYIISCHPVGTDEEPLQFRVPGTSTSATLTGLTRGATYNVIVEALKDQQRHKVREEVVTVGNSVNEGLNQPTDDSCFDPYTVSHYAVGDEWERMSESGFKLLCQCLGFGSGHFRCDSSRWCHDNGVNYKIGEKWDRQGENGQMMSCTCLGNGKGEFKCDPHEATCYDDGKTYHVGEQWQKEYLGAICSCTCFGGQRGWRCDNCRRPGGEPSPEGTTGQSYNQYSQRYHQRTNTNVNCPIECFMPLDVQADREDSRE
Excerpt: (§1) Fn fibers were manually pulled from a concentrated droplet of Fn in PBS (95% unlabeled and 5% Cy5-labeled protein) using a sharp pipette tip and deposited onto a flexible silicone sheet (SMI, USA)[41], rinsed and rehydrated in PBS (schematically shown in Fig. 2c). For affinity measurement Fn fibers were deposited onto a pre-stretched sheet and subsequently relaxed to about a strain of 7% as defined earlier. For measurements of the strain-sensitive binding behavior, fibers were either relaxed or stretched (about 380% strain). […]
Single Fn fiber samples were imaged with an Olympus FV 1000 confocal microscope (Olympus AG, Switzerland) using a 40× water immersion objective with a numerical aperture of 0.9. […] Samples were excited with a 488 nm laser and acceptor (Alexa-546) and donor (Alexa-488) signal was detected in two PMTs using a 12 nm detection bandwidth for donor (514–526 nm) and acceptor (566–578 nm)[25]. […]
Images were analyzed using Fiji-ImageJ and Matlab (MathWorks, Switzerland). For the Fn fiber affinity study, the pixel-wise ratio of FnBPA5-Alexa- 488 signal intensity divided by Fn-Cy5 intensity was calculated for each fiber, if intensities were above a cut-off threshold and below saturation. […] Correction factors for donor bleed through and direct activation of the acceptor used for the analysis were experimentally assessed as shown in Supplementary Fig. 5b, c. […]

[1] = target: relaxed and stretched Fn fibers (Homo sapiens, UniProt P02751); experiment: Fn fiber stretch assay, relaxed vs stretched fibers; type: binding; details: relaxed (7% strain) vs stretched (380% strain) fibers, three independent experiments, p < 0.001
relaxed and stretched Fn fibers, sequence (P02751 32-2477): as above
Excerpt: as §1
Images were analyzed using Fiji-ImageJ and Matlab (MathWorks, Switzerland). For the Fn fiber affinity study, the pixel-wise ratio of FnBPA5-Alexa- 488 signal intensity divided by Fn-Cy5 intensity was calculated for each fiber, if intensities were above a cut-off threshold and below saturation. […] Correction factors for donor bleed through and direct activation of the acceptor used for the analysis were experimentally assessed as shown in Supplementary Fig. 5b, c. […] FRET acceptor channel was corrected for donor bleed through which was measured to be ~20% of the acceptor intensity (Supplementary Fig. 5b). Further analysis such as FRET-Fn-FnBPA5/Fn ratio quantifications were carried out in MatLab.

[2] = target: fibrillar Fn in human dermal fibroblast ECM (Homo sapiens, UniProt P02751); experiment: Binding to ECM assembled by human dermal fibroblasts; type: cell-based; details: 5 μg ml−1 peptide, 1 h prior to fixation, confocal microscopy
fibrillar Fn in human dermal fibroblast ECM, sequence (P02751 32-273 limits assumed): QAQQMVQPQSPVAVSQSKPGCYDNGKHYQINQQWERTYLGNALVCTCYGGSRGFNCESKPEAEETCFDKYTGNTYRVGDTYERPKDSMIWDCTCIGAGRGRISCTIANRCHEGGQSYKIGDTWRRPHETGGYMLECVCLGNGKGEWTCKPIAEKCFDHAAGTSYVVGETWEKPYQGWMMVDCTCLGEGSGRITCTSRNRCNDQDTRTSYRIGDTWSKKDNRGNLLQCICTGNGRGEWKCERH
Description: Normal human dermal fibroblasts (PromoCell, Vitaris AG, Switzerland) were cultured in alpha minimum essential medium (α-MEM) with 10% fetal bovine serum from BioWest (Nuaillé, France), and split before reaching confluence. Cells were seeded onto Fn-coated 8-well chambered cover glasses (Nunc^TM Lab-Tek^TM Chambered Coverglass, Thermo Fisher Scientific, Reinach, Switzerland) at a density of 50 × 10^3 cells per cm^2 and allowed to attach to the surface before medium exchange to medium containing 50 μg ml^−1 Fn. Dependent on the experiment, a fraction of only 10% of exogenous Fn was double-labeled for FRET analysis to prevent intermolecular FRET. Cells in Figs. 2h and 3 were cultured for 48 h. […] After fixation with a 4% paraformaldehyde solution in PBS, the samples shown in Fig. 3 were stained using DAPI (Invitrogen^TM, Thermo Fisher Scientific, Switzerland) and were further analyzed by means of confocal microscopy, whereas samples shown in Fig. 2h were blocked by 4% donkey serum (Abcam, Switzerland) for 1 h at room temperature and fibronectin was stained using a rabbit polyclonal anti-fibronectin antibody (1:50 diluted, ab23750, Abcam, Switzerland). Samples shown in Fig. 2h were then incubated for 1 h with a donkey anti-rabbit Alexa-546 secondary antibody (Invitrogen^TM, Thermo Fisher Scientific, Switzerland).

With CC[C@H](C)[C@H](NC(=O)CNC(=O)[C@H](CCCCN)NC(=O)[C@@H](NC(=O)[C@H](CO)NC(=O)[C@H](CCC(=O)O)NC(=O)[C@H](CCC(=O)O)NC(=O)[C@H](CC(=O)O)NC(=O)[C@H](Cc1ccccc1)NC(=O)[C@H](CCC(=O)O)NC(=O)[C@@H](NC(=O)[C@H](CC(C)C)NC(=O)[C@H](CC(N)=O)NC(=O)[C@H](CO)NC(=O)[C@H](CCC(=O)O)NC(=O)[C@@H](NC(=O)[C@@H](NC(=O)[C@@H](NC(=O)[C@H](CCC(N)=O)NC(=O)CNC(=O)CNC(=O)CNC(=O)[C@@H](N)CSC1CC(=O)N(CCCCCNC(=O)c2ccc(-c3c4ccc(=N)c(S(=O)(=O)O)c-4oc4c(S(=O)(=O)O)c(N)ccc34)c(C(=O)O)c2)C1=O)C(C)C)[C@@H](C)O)[C@@H](C)O)C(C)C)[C@@H](C)O)C(=O)N[C@H](C(=O)N[C@H](C(=O)NCC(=O)N[C@@H](C)C(=O)N[C@H](C(=O)N[C@@H](CO)C(=O)N[C@@H](CC(=O)O)C(=O)N[C@@H](Cc1c[nH]cn1)C(=O)N[C@H](C(=O)N[C@H](C(=O)N[C@H](C(=O)N[C@@H](CCC(=O)O)C(=O)N[C@@H](CC(=O)O)C(=O)N[C@H](C(=O)N[C@@H](CCCCN)C(=O)O)[C@@H](C)O)C(C)C)[C@@H](C)O)[C@@H](C)O)C(C)C)[C@@H](C)O)C(C)C (stereo partly shown) [FnBPA5-Alexa488] (H-C(X2)GGGQVTTESNLVEFDEESTKGIVTGAVSDHTTVEDTK-OH; N-terminus and C-terminus assumed) the “binding to single relaxed Fn fibers (words)” value (relaxed Fn fibers) was “significant higher binding”, the “binding to single relaxed Fn fibers (words)” value (relaxed Fn fibers; listed as FnBPA5-Alexa-488) was “significantly higher binding to Fn fibers than the scrambled control peptide” and the “strain-dependent binding, FnBPA5/Fn ratio” value [1] was “significantly higher peptide binding of FnBPA5 to relaxed Fn fibers compared to stretched fibers”. For the same compound, the “binding to fibroblast-assembled ECM” value [2] was “Specific binding to fibrillar Fn”.
